Tested on: rat C6 glioma xenografts
Experiment: Gene expression profiling (microarray, GO term and PAGE gene set analysis) in rat C6 glioma xenografts
Format: in vivo, mouse
Settings: for Z score, GO0000775 Chromosome pericentric region / Z score, GO0004527 Exonuclease activity / Z score, GO0005634 Nucleus / Z score, GO0006260 DNA replication / Z score, GO0006270 DNA replication initiation / Z score, GO0007049 Cell cycle / Z score, GO0007051 Spindle organization and biogenesis / Z score, GO0007067 Mitosis / Z score, GO0048015 Phosphoinositide mediated signaling / Z score, GO0051301 Cell division: MNF_Crtl
Description: Analysis of gene expression in rat C6 glioma xenografts. Total RNA was isolated from rat C6 glioma xenografts harvested from vehicle and MNF-treated mice (n=3 per group, cohort 1). This analysis was repeated in a second cohort of animals (n=3 per group, cohort 2). Total cellular RNA was extracted using an RNeasy plus mini kit (QIAGEN, Valencia, Calif.), and its quality was assessed using an Agilent BioAnalyzer using RNA 6000 Nano Chips (Agilent Technologies, Santa Clara, Calif.). Transcriptional profiling was determined using Illumina Sentrix BeadChips (Illumina, San Diego, Calif.). Total RNA was used to generate biotin-labeled cRNA with the Illumina TotalPrep RNA Amplification Kit. In short, 0.5 ug of total RNA was first converted into single-stranded cDNA with reverse transcriptase using an oligo-dT primer containing the T7 RNA polymerase promoter site and then copied to produce double-stranded cDNA molecules. The double-stranded cDNA was cleaned and concentrated with the supplied columns and used in an overnight in-vitro transcription reaction where single-stranded RNA (cRNA) was generated incorporating biotin-16-UTP. A total of 0.75 μg of biotin-labeled cRNA was hybridized at 58° C. for 16 hours to Illumina's Sentrix Rat Ref-12 Expression BeadChips. Each BeadChip has ˜22,000 well-annotated RefSeq transcripts with approximately 30-fold redundancy. The arrays were washed, blocked and the labeled cRNA was detected by staining with streptavidin-Cy3. Hybridized arrays were scanned using an Illumina BeadStation 500× Genetic Analysis Systems scanner and the image data extracted using Illumina's GenomeStudio software, version 1.6.1. For statistical analysis, the expression data were filtered to include only probes with a consistent signal on each chip and an Illumina detecton p value <0.02.
Correlation analysis, sample clustering analysis and principal component analysis was performed to identify/exclude any possible outliers. The resulting dataset was next analyzed with DIANE 6.0, a spreadsheet-based microarray analysis program using value statistics for Z-Score reliability below 0.05; and mean background-corrected signal intensity greater than zero.
Gene set enrichment analysis use gene expression values or gene expression change values for all of the genes in the microarray. Parametric analysis of gene set enrichment (PAGE) was used using the WEB-PAGE GSA tool for gene set analysis. Gene Sets include the MSIG database, Gene Ontology Database, GAD human disease and mouse phenotype gene sets were used to explore functional level changes. Gene-gene interaction was also analyzed using the INGENUITY® Pathway Analysis (IPA) system (INGENUITY® Systems).

[1] = Table 9, gene sets influenced by MNF treatment

COc1ccc(C[C@@H](C)NC[C@H](O)c2cc(O)cc(O)c2)c2ccccc12 [(R,R′)-MNF, (R,R′)-4′-methoxy-1-naphthylfenoterol]
Z score, SHEPARD_GENES_COMMON_BW_CB_MO (MNF_Control, cohort 2): −4.3867
Z score, STEMCELL_NEURAL_UP (MNF_Control, cohort 2): −5.0064
Z score, TARTE_MATURE_PC (MNF_Control, cohort 2): 5.3293
Z score, TARTE_PLASMA_BLASTIC (MNF_Control, cohort 2): −6.7905
Z score, VERNELL_PRB_CLSTR1 (MNF_Control, cohort 2): −6.5636
Z score, YU_CMYC_UP (MNF_Control, cohort 2): −7.3723
Z score, ZHAN_MM_CD138_PR_VS_REST (MNF_Control, cohort 2): −9.0080
Z score, ADIP_DIFF_CLUSTERS (MNF_Control, combined cohorts): −7.9684
Z score, ATRBRCAPATHWAY (MNF_Control, combined cohorts): −3.4407
Z score, BRCA_PROGNOSIS_NEG (MNF_Control, combined cohorts): −6.5976
Z score, BRENTANI_REPAIR (MNF_Control, combined cohorts): −4.2370
Z score, CANCER_UNDIFFERENTIATED_META_UP (MNF_Control, combined cohorts): −7.7981
Z score, CELL_CYCLE (MNF_Control, combined cohorts): −8.6730
Z score, CELL_CYCLE_KEGG (MNF_Control, combined cohorts): −7.8764
Z score, CMV_IE86_UP (MNF_Control, combined cohorts): −8.5032
Z score, CROONQUEST_IL6_STARVE_UP (MNF_Control, combined cohorts): −10.7172
Z score, CROONQUIST_IL6_RAS_DN (MNF_Control, combined cohorts): −9.7453
Z score, DAC_FIBRO_DN (MNF_Control, combined cohorts): −6.4794
Z score, DNA_REPLICATION_REACTOME (MNF_Control, combined cohorts): −7.3185
Z score, DOX_RESIST_GASTRIC_UP (MNF_Control, combined cohorts): −10.1840
Z score, E2F1_DNA_UP (MNF_Control, combined cohorts): −5.4288
Z score, GAY_YY1_DN (MNF_Control, combined cohorts): −7.4972
Z score, GOLDRATH_HP (MNF_Control, combined cohorts): −3.4750
Z score, HDACI_COLON_BUT12 HRS_UP (MNF_Control, combined cohorts): 5.8481
Z score, HDACI_COLON_BUT16HRS_UP (MNF_Control, combined cohorts): 4.8024
Z score, HDACI_COLON_BUT24HRS_UP (MNF_Control, combined cohorts): 4.4492
Z score, HDACI_COLON_TSABUT_UP (MNF_Control, combined cohorts): 5.2313
Z score, HIPPOCAMPUS_DEVELOPMENT_POSTNATAL (MNF_Control, combined cohorts): 11.4209
Z score, HOFFMANN_BIVSBII_BI_TABLE2 (MNF_Control, combined cohorts): −8.5773
Z score, HYPOPHYSECTOMY_RAT_DN (MNF_Control, combined cohorts): 5.3951
Z score, IDX_TSA_UP_CLUSTER3 (MNF_Control, combined cohorts): −11.3388
Z score, IRITANI_ADPROX_LYMPH (MNF_Control, combined cohorts): −5.7142
Z score, KAMMINGA_EZH2_TARGETS (MNF_Control, combined cohorts): −8.8163
Z score, KENNY_WNT_UP (MNF_Control, combined cohorts): −6.9481
Z score, LAMB_CYCLIN_D3_GLOCUS (MNF_Control, combined cohorts): −5.0503
Z score, LEE_TCELLS2_UP (MNF_Control, combined cohorts): −6.9464
Z score, LEE_TCELLS3_UP (MNF_Control, combined cohorts): −10.3427
Z score, LI_FETAL_VS_WT_KIDNEY_DN (MNF_Control, combined cohorts): −10.4609
Z score, MANALO_HYPOXIA_DN (MNF_Control, combined cohorts): −6.7155
Z score, MIDDLEAGE_DN (MNF_Control, combined cohorts): −8.2457
Z score, MOREAUX_TACI_HI_IN_PPC_UP (MNF_Control, combined cohorts): −4.9180
Z score, MOREAUX_TACI_HI_VS_LOW_DN (MNF_Control, combined cohorts): −5.1872
Z score, OLDAGE_DN (MNF_Control, combined cohorts): −8.1220
Z score, P21_P53_ANY_DN (MNF_Control, combined cohorts): −8.8530
Z score, PEART_HISTONE_DN (MNF_Control, combined cohorts): −5.7817
Z score, PODI_KO_UP (MNF_Control, combined cohorts): −5.1416
Z score, PRMT5_KD_UP (MNF_Control, combined cohorts): −8.9362
Z score, REN_E2F1_TARGETS (MNF_Control, combined cohorts): −4.4393
Z score, SASAKI_ATL_UP (MNF_Control, combined cohorts): −7.2897
Z score, SASAKI_TCELL_LYMPHOMA_VS_CD4_UP (MNF_Control, combined cohorts): −7.2897
Z score, SERUM_FIBROBLAST_CELLCYCLE (MNF_Control, combined cohorts): −12.2668
Z score, SHEPARD_BMYB_MORPHOLINO_DN (MNF_Control, combined cohorts): −6.0639
Z score, SHEPARD_CRASH_AND_BURN_MUT_VS_WT_DN (MNF_Control, combined cohorts): −5.5788
Z score, SHEPARD_GENES_COMMON_BW_CB_MO (MNF_Control, combined cohorts): −5.7440
Z score, STEMCELL_NEURAL_UP (MNF_Control, combined cohorts): −7.2833
Z score, TARTE_MATURE_PC (MNF_Control, combined cohorts): 6.8026
Z score, TARTE_PLASMA_BLASTIC (MNF_Control, combined cohorts): −8.3308
Z score, VERNELL_PRB_CLSTR1 (MNF_Control, combined cohorts): −7.4144
Z score, YU_CMYC_UP (MNF_Control, combined cohorts): −8.4501
Z score, ZHAN_MM_CD138_PR_VS_REST (MNF_Control, combined cohorts): −10.7002
Z score, GO0000775 Chromosome pericentric region (Combined): −6.3081
Z score, GO0004527 Exonuclease activity (Combined): −5.8765
Z score, GO0005634 Nucleus (Combined): −9.4291
Z score, GO0006260 DNA replication (Combined): −7.3157
Z score, GO0006270 DNA replication initiation (Combined): −5.0248
Z score, GO0007049 Cell cycle (Combined): −9.3510
Z score, GO0007051 Spindle organization and biogenesis (Combined): −6.7039
Z score, GO0007067 Mitosis (Combined): −10.1574
Z score, GO0048015 Phosphoinositide mediated signaling (Combined): −5.2545
Z score, GO0051301 Cell division (Combined): −10.1585
Z score, GO0000775 Chromosome pericentric region (Set 1): −6.7644
Z score, GO0004527 Exonuclease activity (Set 1): −2.5829
Z score, GO0005634 Nucleus (Set 1): −2.1680
Z score, GO0006260 DNA replication (Set 1): −4.7695
Z score, GO0006270 DNA replication initiation (Set 1): −4.0283
Z score, GO0007049 Cell cycle (Set 1): −5.1361
Z score, GO0007051 Spindle organization and biogenesis (Set 1): −4.6166
Z score, GO0007067 Mitosis (Set 1): −7.5266
Z score, GO0048015 Phosphoinositide mediated signaling (Set 1): −4.2781
Z score, GO0051301 Cell division (Set 1): −6.9059
Z score, GO0000775 Chromosome pericentric region (Set 2): −3.5296
Z score, GO0004527 Exonuclease activity (Set 2): −5.4622
Z score, GO0005634 Nucleus (Set 2): −9.9454
Z score, GO0006260 DNA replication (Set 2): −6.0446
Z score, GO0006270 DNA replication initiation (Set 2): −3.7775
Z score, GO0007049 Cell cycle (Set 2): −8.0162
Z score, GO0007051 Spindle organization and biogenesis (Set 2): −5.2288
Z score, GO0007067 Mitosis (Set 2): −7.6563
Z score, GO0048015 Phosphoinositide mediated signaling (Set 2): −3.5441
Z score, GO0051301 Cell division (Set 2): −8.0673
Z score, CELL_CYCLE [1]: −7.4222
Z score, CROONQUIST_IL6_STARVE_UP [1]: −9.0059
Z score, HDACI_COLON_BUT12 HRS_UP [1]: 3.6676
Z score, HIPPOCAMPUS_DEVELOPMENT_POSTNATAL [1]: 10.3511
Z score, HYPOPHYSECTOMY_RAT_DN [1]: 3.9294
Z score, IDX_TSA_UP_CLUSTER3 [1]: −10.1593
Z score, P21_P53_ANY_DN [1]: −7.4300
Z score, SERUM_FIBROBLAST_CELLCYCLE [1]: −10.6997
Z score, TARTE_MATURE_PC [1]: 5.3293
